The supplement of paper PMC10307832

Assays:
Test in all cases: relative viability (nuclei count vs DMSO), 5 days (fraction); higher = more cells survive
A549 = system: A549
Summary of the method: (§1)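 Relative viability was taken as the ratio of nuclei in treated wells to nuclei in vehicle wells. Lung cancer cell lines in 1536-well plates received compounds by pin tool one day after seeding, either one drug alone or a fixed anchor-drug dose plus five library-drug doses (not always all listed) in √10 steps. Nuclei were counted on 4× images after 5 days of treatment, and values are medians of duplicate plates.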

Calu-6 = system: Calu-6
Summary of the method: as §1

EBC-1 = system: EBC-1
Summary of the method: as §1

HCC-78 = system: HCC-78
Summary of the method: as §1

IA-LM = system: IA-LM
Summary of the method: as §1

NCI-H1299 = system: NCI-H1299
Summary of the method: as §1

NCI-H1703 = system: NCI-H1703
Summary of the method: as §1

NCI-H2009 = system: NCI-H2009
Summary of the method: as §1

NCI-H358 = system: NCI-H358
Summary of the method: as §1

NCI-H460 = system: NCI-H460
Summary of the method: as §1

NCI-H661 = system: NCI-H661
Summary of the method: as §1

CC(=O)O[C@@]12CO[C@@H]1C[C@H](O)[C@@]1(C)C(=O)[C@H](O)C3=C(C)[C@@H](OC(=O)[C@H](O)[C@@H](NC(=O)OC(C)(C)C)c4ccccc4)C[C@@](O)([C@@H](OC(=O)c4ccccc4)[C@H]21)C3(C)C [Docetaxel] + CS(=O)(=O)N1CCN(Cc2cc3nc(-c4cccc5[nH]ncc45)nc(N4CCOCC4)c3s2)CC1 [Pictilisib] (partner 1 µM)
relative viability (A549; first compound 0.0002 µM): 0.44 | relative viability (A549; first compound 0.000632 µM): 0.22 | relative viability (A549; first compound 0.002 µM): 0.0741 | relative viability (A549; first compound 0.006325 µM): 0.0602 | relative viability (A549; first compound 0.02 µM): 0.035 | relative viability (Calu-6; first compound 0.0002 µM): 0.937 | relative viability (Calu-6; first compound 0.000632 µM): 0.754 | relative viability (Calu-6; first compound 0.006325 µM): 0.128 | relative viability (Calu-6; first compound 0.02 µM): 0.0823 | relative viability (EBC-1; first compound 0.0002 µM): 0.347 | relative viability (EBC-1; first compound 0.000632 µM): 0.267 | relative viability (EBC-1; first compound 0.002 µM): 0.189 | relative viability (EBC-1; first compound 0.006325 µM): 0.164 | relative viability (HCC-78; first compound 0.0002 µM): 0.204 | relative viability (HCC-78; first compound 0.000632 µM): 0.185 | relative viability (HCC-78; first compound 0.002 µM): 0.172 | relative viability (HCC-78; first compound 0.006325 µM): 0.166 | relative viability (HCC-78; first compound 0.02 µM): 0.204 | relative viability (IA-LM; first compound 0.0002 µM): 0.183 | relative viability (IA-LM; first compound 0.000632 µM): 0.11 | relative viability (IA-LM; first compound 0.002 µM): 0.0755 | relative viability (IA-LM; first compound 0.006325 µM): 0.0696 | relative viability (IA-LM; first compound 0.02 µM): 0.064 | relative viability (NCI-H1299; first compound 0.0002 µM): 0.761 | relative viability (NCI-H1299; first compound 0.000632 µM): 0.579 | relative viability (NCI-H1299; first compound 0.002 µM): 0.305 | relative viability (NCI-H1299; first compound 0.006325 µM): 0.14 | relative viability (NCI-H1299; first compound 0.02 µM): 0.109 | relative viability (NCI-H1703; first compound 0.0002 µM): 0.235 | relative viability (NCI-H1703; first compound 0.000632 µM): 0.26 | relative viability (NCI-H1703; first compound 0.002 µM): 0.2 | relative viability (NCI-H1703; first compound 0.006325 µM): 0.161 | relative viability (NCI-H1703; first compound 0.02 µM): 0.136 | relative viability (NCI-H2009; first compound 0.0002 µM): 0.696 | relative viability (NCI-H2009; first compound 0.000632 µM): 0.747 | relative viability (NCI-H2009; first compound 0.002 µM): 0.447 | relative viability (NCI-H2009; first compound 0.006325 µM): 0.203 | relative viability (NCI-H2009; first compound 0.02 µM): 0.129 | relative viability (NCI-H358; first compound 0.0002 µM): 0.321 | relative viability (NCI-H358; first compound 0.000632 µM): 0.34 | relative viability (NCI-H358; first compound 0.002 µM): 0.283 | relative viability (NCI-H358; first compound 0.02 µM): 0.157 | relative viability (NCI-H460; first compound 0.0002 µM): 0.351 | relative viability (NCI-H460; first compound 0.000632 µM): 0.3 | relative viability (NCI-H460; first compound 0.002 µM): 0.144 | relative viability (NCI-H460; first compound 0.006325 µM): 0.0682 | relative viability (NCI-H460; first compound 0.02 µM): 0.0373 | relative viability (NCI-H661; first compound 0.0002 µM): 0.356 | relative viability (NCI-H661; first compound 0.000632 µM): 0.387 | relative viability (NCI-H661; first compound 0.002 µM): 0.341 | relative viability (NCI-H661; first compound 0.006325 µM): 0.296 | relative viability (NCI-H661; first compound 0.02 µM): 0.278

Cc1sc2c(c1C)C(c1ccc(Cl)cc1)=N[C@@H](CC(=O)OC(C)(C)C)c1nnc(C)n1-2 [JQ1] + CS(=O)(=O)CCNCc1ccc(-c2ccc3ncnc(Nc4ccc(OCc5cccc(F)c5)c(Cl)c4)c3c2)o1 [Lapatinib] (partner 2 µM)
relative viability (A549; first compound 0.04 µM): 0.923 | relative viability (A549; first compound 0.1265 µM): 0.902 | relative viability (A549; first compound 0.4 µM): 1.04 | relative viability (A549; first compound 1.265 µM): 0.553 | relative viability (A549; first compound 4 µM): 0.358 | relative viability (Calu-6; first compound 0.04 µM): 1.11 | relative viability (Calu-6; first compound 0.1265 µM): 0.9 | relative viability (Calu-6; first compound 0.4 µM): 0.999 | relative viability (Calu-6; first compound 1.265 µM): 0.598 | relative viability (Calu-6; first compound 4 µM): 0.564 | relative viability (EBC-1; first compound 0.04 µM): 0.205 | relative viability (EBC-1; first compound 0.1265 µM): 0.208 | relative viability (EBC-1; first compound 0.4 µM): 0.172 | relative viability (EBC-1; first compound 1.265 µM): 0.152 | relative viability (EBC-1; first compound 4 µM): 0.148 | relative viability (HCC-78; first compound 0.04 µM): 0.861 | relative viability (HCC-78; first compound 0.1265 µM): 0.53 | relative viability (HCC-78; first compound 0.4 µM): 0.493 | relative viability (HCC-78; first compound 1.265 µM): 0.391 | relative viability (HCC-78; first compound 4 µM): 0.28 | relative viability (IA-LM; first compound 0.04 µM): 0.63 | relative viability (IA-LM; first compound 0.1265 µM): 0.32 | relative viability (IA-LM; first compound 0.4 µM): 0.123 | relative viability (IA-LM; first compound 1.265 µM): 0.0937 | relative viability (IA-LM; first compound 4 µM): 0.116 | relative viability (NCI-H1299; first compound 0.04 µM): 0.975 | relative viability (NCI-H1299; first compound 0.1265 µM): 0.802 | relative viability (NCI-H1299; first compound 0.4 µM): 0.837 | relative viability (NCI-H1299; first compound 1.265 µM): 0.391 | relative viability (NCI-H1299; first compound 4 µM): 0.316 | relative viability (NCI-H1703; first compound 0.04 µM): 1.07 | relative viability (NCI-H1703; first compound 0.1265 µM): 0.764 | relative viability (NCI-H1703; first compound 0.4 µM): 1.2 | relative viability (NCI-H1703; first compound 1.265 µM): 0.47 | relative viability (NCI-H1703; first compound 4 µM): 0.432 | relative viability (NCI-H2009; first compound 0.04 µM): 0.961 | relative viability (NCI-H2009; first compound 0.1265 µM): 0.412 | relative viability (NCI-H2009; first compound 0.4 µM): 0.336 | relative viability (NCI-H2009; first compound 1.265 µM): 0.285 | relative viability (NCI-H2009; first compound 4 µM): 0.251 | relative viability (NCI-H358; first compound 0.04 µM): 0.467 | relative viability (NCI-H358; first compound 0.1265 µM): 0.494 | relative viability (NCI-H358; first compound 0.4 µM): 0.647 | relative viability (NCI-H358; first compound 1.265 µM): 0.561 | relative viability (NCI-H358; first compound 4 µM): 0.577 | relative viability (NCI-H460; first compound 0.04 µM): 0.887 | relative viability (NCI-H460; first compound 0.1265 µM): 0.465 | relative viability (NCI-H460; first compound 0.4 µM): 0.536 | relative viability (NCI-H460; first compound 1.265 µM): 0.217 | relative viability (NCI-H460; first compound 4 µM): 0.169 | relative viability (NCI-H661; first compound 0.04 µM): 0.402 | relative viability (NCI-H661; first compound 0.1265 µM): 0.527 | relative viability (NCI-H661; first compound 0.4 µM): 0.339 | relative viability (NCI-H661; first compound 1.265 µM): 0.27 | relative viability (NCI-H661; first compound 4 µM): 0.321
